In data set [1] the test system is thrombus formation in whole blood. The experiment in a line: T-TAS AR chip, rivaroxaban-anticoagulated whole blood. The conditions noted are these: 9 uM dose (a pharmacological dose). Format: cell-based, human. How it is done: Rivaroxaban (sometimes herein called Riv) dose-response in whole blood was measured using T-TASR. An AR chip (Collagen+TF) was used. T-TAS® assays were performed according to Example 3. The donor platelets were used at 307 k/μL.
Thrombosomes were prepared consistent with the procedures described in U.S. Pat. No. 8,486,617 (such as, e.g., Examples 1-5) and U.S. Pat. No. 8,097,403 (such as, e.g., Examples 1-3), and rehydrated by addition of sterile water. T-TAS® assays were run according to Example 3 using 3 μM rivaroxaban and different concentrations of thrombosomes (FIG. 10A, Table 8). The ‘No Riv’ vertical line indicates the approximate occlusion time of a sample with no added rivaroxaban.

For data set [2] the following is noted: cited from earlier work.
Data set [3] relates to occlusion of Platelet Rich Plasma (PRP).
Procedure: The T-TAS® instrument was prepared for use according to the manufacturer's instructions. AR Chips (Diapharma Cat. #TC0101) and AR Chip Calcium Corn Trypsin Inhibitor (CaCTI; Diapharma Cat. #TR0101) were warmed to room temperature. […] The sample was loaded and run on the T-TAS® according to the manufacturer's instructions.
The effect of cangrelor and ticagrelor on occlusion time of Platelet Rich Plasma (PRP) with and without FDPDs was assessed using the T-TAS® assay. The concentrations of the agents were as follows: cangrelor at 1 μM, ticagrelor at 500 ng/mL, FDPDs at 150 k/μL, and ADP at 2 μM. […] The number of trials per each assay is listed as the “(n=_)” values.
The subject of data set [4] is New Zealand White Rabbits. The experiment in a line: Ear bleed time in clopidogrel-treated rabbits. It counts as in vivo, rabbit. Conditions: clopidogrel 23 mg/kg for 5 days, untreated 87.1+/−18.2. How it is done: Rabbits were treated with clopidogrel at 23 mg/kg for 5 days. The rabbits were anesthetized, the ear was bled and time to clot recorded. Animals were treated, injected into a vein or artery, with saline or 1.6×10^9/kg of human FDPDs, at the same time the ear was bled, and the ear bleed trial commenced. The time from ear bleed to stop bleeding was recorded by visual inspection.

The test system of a further data set is NOD-SCID mice. The experiment in a line: Tail snip bleeding time in clopidogrel-treated mice. Format: in vivo, mouse. Conditions: clopidogrel 5 mg/kg for 3 days, untreated 758.6+/−623.4. On the procedure:
Mice were treated with clopidogrel at 5 mg/kg for 3 days. The mice were anesthetized, the tail end was snipped off at 1 mm diameter and submerged in warm saline and time to clot recorded. Animals were syringe injected, into a vein or artery, with saline or 1.6×10^9/kg of FDPDs, at the same time the tail was snipped, and the tail snip trial commenced. The time from tail snip to tail stop bleeding was recorded by visual inspection of cessation of blood loss.

Data set [5] concerns thrombin generation in platelet rich plasma. The experiment in a line: Thrombin generation assay in dabigatran-treated PRP. It counts as cell-based, human. Conditions: dabigatran (100 ng/mL), PRP reagent; 18.89 untreated.
Procedure: • (1) Open CAT software; set up instrument; and prepare PRP reagent (including Tissue Factor and some phospholipids), calibrator, and fluoro-buffer according to manufacturer guidelines. • (2) Thaw warfarin or control plasma in 37° C. water bath for 5 minutes. • (3) Rehydrate thrombosomes with cell culture grade water for 10 minutes then dilute with Control Buffer to double target concentration. • (4) For each sample, combine 1:1 volumes of Control Buffer with or without thrombosomes and plasma. • (5) Using a multichannel pipette, add 20 μL of PRP reagent to each well. • (6) Add 80 μL of sample per well.
Data set [6] relates to thrombus formation in GK PPP. The experiment in a line: T-TAS AR chip, George King Platelet Poor Plasma with or without GPRP. It counts as biochemical, human. Conditions: GK PPP + 1 mM GPRP (No Tsomes). How it is done:
In the Total Thrombus-formation Analysis System (T-TAS®, FUJIMORI KOGYO CO., LTD), the sample is forced through collagen-coated microchannels using mineral oil. Changes in pressure are used to assess thrombus formation. The Occlusion Start Time is time it takes to reach Δ10 kPa, and the Occlusion Time=time it takes to each Δ80 kPa using an AR chip (Zacros Item No, TC0101).
The effect of GPRP (1 mM) on occlusion activity was also assayed.

Data set [7] deals with time to clot in pooled normal plasma. The experiment in a line: Activated clotting time (ACT), heparin and protamine in pooled normal plasma. Format: biochemical, human. The conditions noted are these: heparin titration. On the procedure:
This experiment assessed how clinical proportions of Heparin and Protamine affect FDPD function. FDPDs were prepared according to the procedure in Example 18. An Activating Clotting Time (ACT) assay was performed to measure time to clot and TGA was performed to measure thrombin generation. An initial Heparin titration run was performed using ACT to find the minimum Heparin dose needed to reach abnormal clot time.
Activated clotting time was measured using pooled normal plasma with heparin (H) and protamine (P) as labeled on the x-axis; ½ P, P, and 3/2 P represent protamine doses of 4, 8, and 12 μg/ml, respectively. FDPDs, (referred to as “Tsomes” in FIG. 33) were added at 10, 25 or 50 K/μl. […] “K” in the legend stands for 10^3 FDPDS. All samples were run in duplicate. N=2. The experiment was repeated on separate days to improve statistical relevance.

Where [8] appears, read: ADP (2 μM) stimulated PRP, cangrelor at 1 μM (n=4) or ticagrelor at 500 ng/mL (n=5), PRP alone 19.5±1.5.

Read-outs that look alike come from different tables or passages of the source.

As to `O=C(NC[C@H]1CN(c2ccc(N3CCOCC3=O)cc2)C(=O)O1)c1ccc(Cl)s1` [Rivaroxaban], the “occlusion and thrombus formation” value in data set [1] is given as “inhibits occlusion but not all thrombus formation”.
Take `CC(=O)Oc1ccccc1C(=O)O` [aspirin, Acetylsalicylic acid]: the peak concentration in data set [2] (single 500 mg dose IV) was 500 µM; in data set [2] (single 500 mg dose orally) it was 44 µM. The same compound showed an occlusion time in data set [3] (PRP at 30K/μL, aspirin at 500 μM, PRP alone 25:56) of more than 30 min.
In data set [3] (setting [8]), `CSCCNc1nc(SCCC(F)(F)F)nc2c1ncn2[C@@H]1O[C@H](COP(=O)(O)OP(=O)(O)C(Cl)(Cl)P(=O)(O)O)[C@@H](O)[C@H]1O` [cangrelor] gave an occlusion time of 28.0 ± 3.0 min.
As for `COC(=O)[C@H](c1ccccc1Cl)N1CCc2sccc2C1` [clopidogrel], the values for the bleed time (in data set [4]; in the data set with NOD-SCID mice) were 206.8 ± 104.2 s and 1661 ± 257.9 s, respectively.
On to `[H]/N=C(/N)c1ccc(NCc2nc3cc(C(=O)N(CCC(=O)O)c4ccccn4)ccc3n2C)cc1` [dabigatran], for which, in data set [5], the Time to peak was determined as 34.67 min.
In turn, `CCCSc1nc(N[C@@H]2C[C@H]2c2ccc(F)c(F)c2)c2nnn([C@@H]3C[C@H](OCCO)[C@@H](O)[C@H]3O)c2n1` [ticagrelor] registered an occlusion time in data set [3] (setting [8]) of 28.0 ± 3.0 min.
Regarding GPRP, in data set [6], the “Area Under Curve” value is on record as 52.43 and the “Occlusion Speed” value was determined as 0 kPa/min.
For the compound Heparin, in data set [7], the “minimum Heparin dose needed to reach abnormal clot formation” value amounted to 0.8 U/mL.
